# Assays:
# Type in all cases: in vivo
# [1] = system: redroot pigweed (Amaranthus retroflexus, AMARE); assay: Pre-emerge test, greenhouse herbicide activity screening; conditions: pre-emerge, 14 days after application, rating scale 0-100
# Method in brief: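 Herbicidal damage is scored 0 (none) to 100 (complete plant death) two weeks after a simulated field spray. Rates span 15–1000 g ai/ha, delivered in acetone at 187 l/ha. For post-emergence treatments, plants have 2–3 leaves and the spray carries 0.25% v/v non-ionic surfactant.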
# [2] = system: barnyardgrass (Echinochloa crus-galli, ECHCG); assay: as above; conditions: pre-emerge, 14 days after application, rating scale 0-100
# Method in brief: (§1)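 Visual ratings on a 0-100 scale (0 no damage, 100 all plants dead) were taken at 14 days after treatment. Rates of 15-1000 g ai/ha in acetone, 187 l/ha, were sprayed onto soil one day after planting (pre-emerge) or onto 2-3 leaf plants with 0.25% v/v surfactant (post-emerge).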
# [3] = system: green foxtail (Setaria viridis, SETVI); assay: as above; conditions: pre-emerge, 14 days after application, rating scale 0-100
# Method in brief: as §1
# [4] = system: ivyleaf morningglory (Ipomoea hederacea, IPOHE); assay: as above; conditions: pre-emerge, 14 days after application, rating scale 0-100
# Method in brief: as §1
# [5] = system: johnsongrass (Sorghum halepense, SORHA); assay: as above; conditions: pre-emerge, 14 days after application, rating scale 0-100
# Method in brief: as §1
# [6] = system: lambsquarters (Chenopodium album, CHEAL); assay: as above; conditions: pre-emerge, 14 days after application, rating scale 0-100
# Method in brief: as §1
# [7] = system: large crabgrass (Digitaria sanguinalis, DIGSA); assay: as above; conditions: pre-emerge, 14 days after application, rating scale 0-100
# Method in brief: as §1
# [8] = system: sicklepod (Cassia obtusifolia, CASOB); assay: as above; conditions: pre-emerge, 14 days after application, rating scale 0-100
# Method in brief: as §1
# [9] = system: velvetleaf (Abutilon theophrasti, ABUTH); assay: as above; conditions: pre-emerge, 14 days after application, rating scale 0-100
# Method in brief: as §1
# [10] = system: barnyardgrass (Echinochloa crus-galli, ECHCG); assay: Post-emerge test, greenhouse herbicide activity screening; conditions: post-emerge, 14 days after application, rating scale 0-100
# Method in brief: as §1
# [11] = system: green foxtail (Setaria viridis, SETVI); assay: as above; conditions: post-emerge, 14 days after application, rating scale 0-100
# Method in brief: as §1
# [12] = system: ivyleaf morningglory (Ipomoea hederacea, IPOHE); assay: as above; conditions: post-emerge, 14 days after application, rating scale 0-100
# Method in brief: as §1
# [13] = system: johnsongrass (Sorghum halepense, SORHA); assay: as above; conditions: post-emerge, 14 days after application, rating scale 0-100
# Method in brief: as §1
# [14] = system: lambsquarters (Chenopodium album, CHEAL); assay: as above; conditions: post-emerge, 14 days after application, rating scale 0-100
# Method in brief: as §1
# [15] = system: large crabgrass (Digitaria sanguinalis, DIGSA); assay: as above; conditions: post-emerge, 14 days after application, rating scale 0-100
# Method in brief: as §1
# [16] = system: redroot pigweed (Amaranthus retroflexus, AMARE); assay: as above; conditions: post-emerge, 14 days after application
# Method in brief: as §1
# [17] = system: sicklepod (Cassia obtusifolia, CASOB); assay: as above; conditions: post-emerge, 14 days after application, rating scale 0-100
# Method in brief: as §1
# [18] = system: velvetleaf (Abutilon theophrasti, ABUTH); assay: as above; conditions: post-emerge, 14 days after application, rating scale 0-100
# Method in brief: as §1
structure (smiles),measurement,setting,value
"COc1c(Cl)cc(F)c(-n2c(=O)cc(C(F)(F)F)n(C)c2=O)c1OC(=O)c1ccc2ccccc2c1 [Compound 16-7, 3-[4-chloro-6fluoro-3-methoxy-2-(2-naphthoyloxy)phenyl]-1-methyl-6-trifluoromethyl-2,4(1H, 3H)-pyrimidinedione]",phytotoxicity rating AMARE,[1]; 63 g ai/ha,0
same,phytotoxicity rating AMARE,[1]; 250 g ai/ha,50
same,phytotoxicity rating ECHCG,[2]; 63 g ai/ha,0
same,phytotoxicity rating ECHCG,[2]; 250 g ai/ha,0
same,phytotoxicity rating SETVI,[3]; 63 g ai/ha,0
same,phytotoxicity rating SETVI,[3]; 250 g ai/ha,0
same,phytotoxicity rating IPOHE,[4]; 63 g ai/ha,0
same,phytotoxicity rating IPOHE,[4]; 250 g ai/ha,0
same,phytotoxicity rating SORHA,[5]; 63 g ai/ha,0
same,phytotoxicity rating SORHA,[5]; 250 g ai/ha,0
same,phytotoxicity rating CHEAL,[6]; 63 g ai/ha,0
same,phytotoxicity rating CHEAL,[6]; 250 g ai/ha,0
same,phytotoxicity rating DIGSA,[7]; 63 g ai/ha,0
same,phytotoxicity rating DIGSA,[7]; 250 g ai/ha,0
same,phytotoxicity rating CASOB,[8]; 63 g ai/ha,0
same,phytotoxicity rating CASOB,[8]; 250 g ai/ha,0
same,phytotoxicity rating ABUTH,[9]; 63 g ai/ha,0
same,phytotoxicity rating ABUTH,[9]; 250 g ai/ha,0
same,Post-emerge Herbicidal Activity ECHCG (phytotoxicity rating),[10]; 63 g ai/ha,0
same,Post-emerge Herbicidal Activity ECHCG (phytotoxicity rating),[10]; 250 g ai/ha,0
same,Post-emerge Herbicidal Activity SETVI (phytotoxicity rating),[11]; 63 g ai/ha,0
same,Post-emerge Herbicidal Activity SETVI (phytotoxicity rating),[11]; 250 g ai/ha,0
same,Post-emerge Herbicidal Activity IPOHE (phytotoxicity rating),[12]; 63 g ai/ha,0
same,Post-emerge Herbicidal Activity IPOHE (phytotoxicity rating),[12]; 250 g ai/ha,30
same,Post-emerge Herbicidal Activity SORHA (phytotoxicity rating),[13]; 63 g ai/ha,0
same,Post-emerge Herbicidal Activity SORHA (phytotoxicity rating),[13]; 250 g ai/ha,0
same,Post-emerge Herbicidal Activity CHEAL (phytotoxicity rating),[14]; 63 g ai/ha,0
same,Post-emerge Herbicidal Activity CHEAL (phytotoxicity rating),[14]; 250 g ai/ha,0
same,Post-emerge Herbicidal Activity DIGSA (phytotoxicity rating),[15]; 63 g ai/ha,0
same,Post-emerge Herbicidal Activity DIGSA (phytotoxicity rating),[15]; 250 g ai/ha,0
same,Post-emerge Herbicidal Activity AMARE (phytotoxicity rating),"[16]; 63 g ai/ha, rating scale 0-100 (0 no damage, 100 complete death)",0
same,Post-emerge Herbicidal Activity AMARE (phytotoxicity rating),"[16]; 250 g ai/ha, rating scale 0-100",0
same,Post-emerge Herbicidal Activity CASOB (phytotoxicity rating),[17]; 63 g ai/ha,0
same,Post-emerge Herbicidal Activity CASOB (phytotoxicity rating),[17]; 250 g ai/ha,30
same,Post-emerge Herbicidal Activity ABUTH (phytotoxicity rating),[18]; 63 g ai/ha,0
same,Post-emerge Herbicidal Activity ABUTH (phytotoxicity rating),[18]; 250 g ai/ha,0

# Source: patent publication US6355799B1, “Substituted benzene compounds, process for their preparation, and herbicidal and defoliant compositions containing them” (ISK Americas Incorporated, priority 1997, dated 2002)
